# Data: patent US8993752B2, “Neprilysin inhibitors” (Theravance Biopharma R&D IP, LLC, priority 2011, dated 2015)
# Molecular target: T1, human NEP (Homo sapiens, UniProt P08473)
# T1 construct: purchased R&D Systems, Minneapolis, Minn; 1182-ZN
# Assay: In vitro enzyme inhibition assay at human NEP (fluorogenic peptide substrate)
# Type: biochemical
# Settings: recombinant human NEP; substrate Mca-D-Arg-Arg-Leu-Dap-(Dnp)-OH 10 μM; 37° C.; values given as ranges; read-out: pKi values at human NEP (converted)
# Method in brief: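 Recombinant human NEP pre-incubated 30 min at 37 °C with compound (10 μM to 20 pM), then 10 μM Mca-D-Arg-Arg-Leu-Dap-(Dnp)-OH in 50 mM HEPES pH 7.5, 100 mM NaCl, 0.01% Tween-20, 10 μM ZnSO4. Stopped after 20 min with acetic acid, fluorescence read at 320/405 nm; Ki from nonlinear fit, reported as pKi.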
# T1 sequence (P08473 whole entry): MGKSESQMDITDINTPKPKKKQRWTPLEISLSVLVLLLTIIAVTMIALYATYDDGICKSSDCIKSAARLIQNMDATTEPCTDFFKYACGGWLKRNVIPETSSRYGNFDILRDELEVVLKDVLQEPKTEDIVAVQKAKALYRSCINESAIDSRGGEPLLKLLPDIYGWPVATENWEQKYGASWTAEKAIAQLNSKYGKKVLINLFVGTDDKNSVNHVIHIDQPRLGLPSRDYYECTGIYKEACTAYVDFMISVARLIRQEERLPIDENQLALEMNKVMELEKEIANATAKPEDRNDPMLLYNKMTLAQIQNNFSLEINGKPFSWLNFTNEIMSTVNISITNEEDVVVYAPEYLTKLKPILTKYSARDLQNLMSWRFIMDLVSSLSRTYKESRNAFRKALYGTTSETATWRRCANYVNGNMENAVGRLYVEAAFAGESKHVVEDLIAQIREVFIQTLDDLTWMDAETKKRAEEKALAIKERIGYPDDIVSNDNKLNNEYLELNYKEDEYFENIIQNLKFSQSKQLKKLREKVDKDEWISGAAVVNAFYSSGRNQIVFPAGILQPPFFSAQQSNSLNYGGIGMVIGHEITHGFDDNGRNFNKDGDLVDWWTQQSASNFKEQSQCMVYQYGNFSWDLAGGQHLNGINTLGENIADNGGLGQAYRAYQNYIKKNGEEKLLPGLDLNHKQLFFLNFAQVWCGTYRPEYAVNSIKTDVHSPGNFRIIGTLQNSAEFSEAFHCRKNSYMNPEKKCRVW
row,Compound,Ki [nM]
1,"CCCCCCn1nc(C(=O)N[C@@H](CC(=O)O)Cc2ccccc2Cl)cc1C(=O)O [Example 11-8, 5-[(R)-2-Carboxy-1-(2-chloro-benzyl)-ethylcarbamoyl]-2-hexyl-2H-pyrazole-3-carboxylic acid]",12.6 to 100
2,"O=C(O)C[C@@H](Cc1ccccc1Cl)NC(=O)c1cc(C(=O)O)n(CC(=O)O)n1 [Example 11-9, 5-[(R)-2-Carboxy-1-(2-chloro-benzyl)-ethylcarbamoyl]-2-carboxymethyl-2H-pyrazole-3-carboxylic acid]",12.6 to 100
3,"CC(Cn1nc(C(=O)N[C@@H](CC(=O)O)Cc2ccccc2Cl)cc1C(=O)O)C(=O)O (stereo partly drawn) [Example 11-10, 5-[(R)-2-Carboxy-1-(2-chloro-benzyl)-ethylcarbamoyl]-2-(2-carboxy-propyl)-2H-pyrazole-3-carboxylic acid]",12.6 to 100
4,"O=C(O)C[C@@H](Cc1ccccc1Cl)NC(=O)c1cc(C(=O)O)n(Cc2ccncc2)n1 [Example 11-11, 5-[(R)-2-Carboxy-1-(2-chloro-benzyl)-ethylcarbamoyl]-2-pyridin-4-ylmethyl-2H-pyrazole-3-carboxylic acid]",12.6 to 100

# Other lines, results leading:
row,Ki [nM],Compound
1,12.6 to 100,"O=C(O)C[C@@H](Cc1ccccc1C(F)(F)F)NC(=O)c1cc(C(=O)O)[nH]n1 [Example 12, 5-[(R)-2-Carboxy-1-(2-trifluoromethylbenzyl)-ethylcarbamoyl]-2H-pyrazole-3-carboxylic Acid]"
2,12.6 to 100,"Cc1ccccc1C[C@H](CC(=O)O)NC(=O)c1cc(C(=O)O)[nH]n1 [Example 13, 5-((R)-1-Carboxymethyl-2-o-tolyl-ethylcarbamoyl)-2H-pyrazole-3-carboxylic Acid]"
